Usually LogP stands for the decadic logarithm of the partition coefficient of the neutral form, usually between octanol and water. Low values mean lower lipophilicity, high ones higher lipophilicity. Usually logP stands for the decadic logarithm of the partition coefficient of the neutral form, usually between octanol and water. The low end stands for a more hydrophilic compound, the high end for a more lipophilic compound.

Bounds are passed on as bounds.

One data set in a line: physchem. The text has this: Here, regarding several organic solvents, a log P value (water octanol distribution coefficient) will be described below. […] Note that, numbers in parentheses indicate log P values.
Here, “log P value” means an index indicating the hydrophobicity of the compound. The log P value indicates the ratio of the solutes distributed in these two layers in the octanol/water system. In other words, the larger the log P value of the solute is, the higher the hydrophobicity is, and it dissolves well in the octanol phase. Further, the fact that the log P values of the two kinds of substances are approximate means that the hydrophobicity of each is similar. The log P value can be obtained by, for example, a flask shaking method in which a solute and two kinds of solvents are actually put into a flask and are stirred well, and an HPLC method using high performance liquid chromatography (HPLC).

A short description of data set [1]: degree of solubility with respect to an aqueous solution having a concentration of 2-pyrrolidone of 20% by mass. Particulars: 20% by mass 2-pyrrolidone aqueous solution, 25° C.
The mark [2] stands for this setting: LogP, Table 2, organic solvents of the reaction solution.
Where [3] appears, read: LogP, Table 3, organic solvents of the reaction solution.

In the data set “physchem”, `CC(=O)OCCOC(C)=O` [Ethylene glycol diacetate] came in with a LogP of 0.40 and a logP of 0.4.

`CC(=O)OCC(C)OC(C)=O` (stereo not drawn) [propylene glycol diacetate] returned a logP in the data set “physchem” of 0.74.

Compound `COCCC(=O)N(C)C` [3-methoxy-N,N-dimethyl propanamide] displayed a LogP in the data set “physchem” of 0.73.

Consider `CCCCCCOCCO` [ethylene glycol mono-n-hexyl ether], for which the “Solubility to 2-pyrrolidone aqueous solution” value (from here on “Solubility”) in data set [1] (Table 2) and in data set [1] (Table 3) was no less than 1% each time. In the data set “physchem”, this compound yielded a logP of 1.57.

The compound `CCCOCC(C)O` (stereo not drawn) [propylene glycol monopropyl ether] yielded a logP in “physchem” of -0.81.

With `CCCCOCCOCCOCCO` [triethylene glycol monobutyl ether], in the data set “physchem”, the lipophilicity (logP) was found to be 0.51.

Regarding `CCCCOCCOCCO` [diethylene glycol monobutyl ether], the logP in the data set “physchem” worked out at 1.19.

As for `COCCOCCO` [diethylene glycol monomethyl ether], the “Solubility” value in data set [1] (Table 2) and in data set [1] (Table 3) was no less than 1% in each case. For the same compound, the logP in the data set “physchem” (setting [2]) and in the data set “physchem” (setting [3]) was -1.18 throughout.

For the compound `CCC(O)CO` (stereo not drawn) [1,2-butanediol], the “Solubility” value in data set [1] (Table 1) was no less than 1%. Also, the logP in the data set “physchem” (octanol/water) amounted to 0.06.

`COCCOCCOCCOC` [triethylene glycol dimethyl ether]: the logP in the data set “physchem” was -0.67.

With `CCOCCOCCOC` [diethylene glycol ethyl methyl ether], the “Solubility” value in data set [1] (Table 2) and in data set [1] (Table 3) was no less than 1% in each case. In addition, in “physchem”, the lipophilicity (logP) is 0.69.

`CCCCOCCOC(C)=O` [ethylene glycol monobutyl ether acetate]: the “Solubility” value in data set [1] (Table 2) and in data set [1] (Table 3) was no less than 1% in each case. In addition, the logP in the data set “physchem” (octanol/water) was found to be 1.79.

`CCC(=O)OCC(C)OC(=O)CC` (stereo not drawn) [propylene glycol dipropionate] returned a logP in “physchem” of 1.76.

On to `CCC(=O)N(C)C` [N,N-dimethyl propionamide], for which the “Solubility” value in data set [1] (Table 3) is no less than 1%. The same compound yielded a logP in “physchem” of 0.46.

With `CCCCOCC(C)O` (stereo not drawn) [propylene glycol monobutyl ether], the “Solubility” value in data set [1] (Table 2) and in data set [1] (Table 3) was no less than 1% throughout. Also, the logP in the data set “physchem” was determined as 1.19.

`CCCCOCCOCCOCCCC` [diethylene glycol di-n-butyl ether]: in the data set “physchem”, the LogP was 1.92 and the logP is 1.92.

Regarding `COC(C)(C)CCO` [3-methoxy-3-methylbutanol], the logP in the data set “physchem” was -0.63.

Consider `COC(C)CCO` (stereo not drawn) [3-methoxy-1-butanol], for which the “Solubility” value in data set [1] (Table 2) and in data set [1] (Table 3) was no less than 1% in each case. The logP in the data set “physchem” was 0.07.

Take `OCC(O)CO` [Glycerin]: the LogP in the data set “physchem” is listed as −1.76.

Turning to `O=C1CCCO1` [γ-butyrolactone], the “Solubility” value in data set [1] (Table 2) and in data set [1] (Table 3) was no less than 1% each time. Further, the lipophilicity (logP) in the data set “physchem” (setting [2]) was -0.64; in “physchem” (setting [3]), -0.64; in the data set “physchem” (log P value (water octanol distribution coefficient), octanol/water) it was -0.64.

Consider polyethylene glycol monomethyl ether, for which the “Solubility” value in data set [1] (Table 2) and in data set [1] (Table 3) was no less than 1% each time. For the same compound, in “physchem”, the LogP amounted to 0.80.

As to `CC(O)CO` (stereo not drawn) [propylene glycol], the logP in “physchem” is -1.4.

Values taken from patent US10245847B2, “Reaction solution and ink jet recording method” (Seiko Epson Corporation, priority 2016, dated 2019).
